Values quoted from earlier work, collected in US12564551B2, “Composition or oat extract comprising avenanthramide and β-glucan” (SYMRISE AG, priority 2020, dated 2026).

Conditions: Avn C, followed by Avn B and Avn A

O=C(C=Cc1ccc(O)c(O)c1)Nc1ccc(O)cc1C(=O)O [Avn C, N-(3′,4′-dihydroxycinnamoyl)-5-hydroxyanthranilic acid]
antioxidant activity, rank among Avns (in words): highest activity
